This note sets out measurements from US12402622B2, “Agricultural compositions and methods of use thereof” (Valent U.S.A. LLC, priority 2019, dated 2025).

One test deals with volunteer corn. Put plainly: Control and lodging of volunteer corn (14 inches), spray chamber, sugar alcohol rate series, Example 4. The format is in vivo. Conditions: for lodging on addition of the sugar alcohol to S-3100: addition to S-3100, rate not given; for control of volunteer corn relative to S-3100 alone: sugar alcohol at 1700, 3400, 6800, 13600 and 27200 g/HA with S-3100. How it is done: 12 trials were conducted on the efficacy of S-3100 with or without mannitol or sorbitol at various application rates. Specifically, 12 plots of volunteer corn were grown to 14 inches in height. These plots were placed in a spray chamber for treatment. All compositions contained 1% v/v of Agridex® and 0.25% v/v of Induce®. Treatments and results can be found in Table 4, below.

Test [1] concerns barnyard grass. Put plainly: Control of barnyard grass (10 inches), spray chamber, sugar alcohol rate series, Example 5. The format is in vivo, Echinochloa crus-galli. Conditions: for % control: S-3100 20 g/HA alone; for control of barnyard grass relative to S-3100 alone: 7 and 14 DAT, sugar alcohol at 1700, 3400, 6800, 13600 and 27200 g/HA with S-3100. Here is the method:
12 trials were conducted on the efficacy of S-3100 with or without mannitol or sorbitol at various application rates. Specifically, 12 plots of barnyard grass were grown to 10 inches in height. These plots were placed in a spray chamber for treatment. All compositions contained 1% v/v of Agridex® and 0.25% v/v of Induce®. Treatments and results can be found in Table 5, below.

A further test relates to corn. Put plainly: Control of corn (12 inches), spray chamber, Example 2. The class given is in vivo. The note with it: S-3100 20 g/HA, mannitol or sorbitol 6800 g/HA where combined. Here is the method: 4 trials were conducted on the efficacy of S-3100 with or without mannitol or sorbitol. Specifically, 4 plots of corn were grown to 12 inches in height. These plots were placed in a spray chamber for treatment. All compositions contained 1% v/v of Agridex® and 0.25% v/v of Induce®. Treatments and results can be found in Table 2, below.

The test system of another test is crabgrass. In words: Control of crabgrass (10 inches), spray chamber, sugar alcohol rate series, Example 3. The format is in vivo, Digitaria sanguinalis. The note with it: for % control: S-3100 20 g/HA alone; for control of crabgrass relative to S-3100 alone: 7 and 14 DAT, sugar alcohol at 1700, 3400, 6800, 13600 and 27200 g/HA with S-3100. Here is the method: 12 trials were conducted on the efficacy of S-3100 with or without mannitol or sorbitol at various application rates. Specifically, 12 plots of crabgrass were grown to 10 inches in height. These plots were placed in a spray chamber for treatment. All compositions contained 1% v/v of Agridex® and 0.25% v/v of Induce®. Treatments and results can be found in Table 3, below.

The subject of test [2] is soybean petioles/leaves at V6 stage. In words: Soybean petiole detached assay (translocation of S-3100), Example 6. The format is in vivo. Conditions: 21 DAT, S-3100 20 g/HA, mannitol or sorbitol 6800 g/HA, FIG. 1. How it is done: FIG. 1. Soybean plant leaf at V6 stage. A. untreated control. B. Treated with 20 g/HA S-3100. C. Treated with 6800 g/HA mannitol. D. Treated with 6800 g/HA sorbitol. E. Treated with 20 g/HA S-3100 and 6800 g/HA mannitol. F. Treated with 20 g/HA S-3100 and 6800 g/HA sorbitol.
4 plots of soybeans were grown to the V6 stage. Soybean petioles of plants at the V6 stage were treated in a petiole detached assay with 1 of the following 4 treatments: 1) untreated; 2) 20 g/HA S-3100; 3) 20 g/HA S-3100 and 6800 g/HA mannitol or 4) 20 g/HA S-3100 and 6800 g/HA sorbitol. Results were recorded 21 DAT. Results can be seen in FIG. 1.

The test system of test [3] is barnyard grass. In words: Control of barnyard grass (6 inches), spray chamber, Example 1. Conditions: S-3100 20 g/HA, mannitol or sorbitol 6800 g/HA where combined. The format is in vivo, Echinochloa crus-galli. Here is the method: 4 trials were conducted on the efficacy of ethyl [3-[2-chloro-4-fluoro-5-(1-methyl-6-trifluoromethyl-2,4-dioxo-1,2,3,4-tetrahydropyrimidin-3-yl)phenoxy]-2-pyridyloxy]acetate (“S-3100”) with or without mannitol or sorbitol. Specifically, 4 plots of barnyard grass were grown to 6 inches in height. These plots were placed in a spray chamber for treatment. All compositions contained 1% v/v of Agridex® and 0.25% v/v of Induce®. Treatments and results can be found in Table 1, below.

On to `CCOC(=O)COc1ncccc1Oc1cc(-n2c(=O)cc(C(F)(F)F)n(C)c2=O)c(F)cc1Cl` [S-3100, ethyl [3-[2-chloro-4-fluoro-5-(1-methyl-6-trifluoromethyl-2,4-dioxo-1,2,3,4-tetrahydropyrimidin-3-yl)phenoxy]-2-pyridyloxy]acetate], for which the “% control” value in the test with volunteer corn (7 DAT, S-3100 20 g/HA alone) is on record as 80.6%; in the test with barnyard grass [1] (7 DAT), 94.1%; in the test with barnyard grass [1] (14 DAT), 89.1%; in the test with corn (9 days after treatment, 1% v/v Agridex, 0.25% v/v Induce), 55.8%; in the test with corn (13 days after treatment), 52.5%; with corn (22 days after treatment) it was 25%. Besides, the “% control” value with crabgrass (7 DAT) was 81.3%; with crabgrass (14 DAT), 76.9%; in the test with barnyard grass [3] (2 days after treatment, 1% v/v Agridex, 0.25% v/v Induce) it was 27.2%; with barnyard grass [3] (7 days after treatment), 72.1%; in the test with barnyard grass [3] (13 days after treatment) it was 49.3%; in the test with barnyard grass [3] (20 days after treatment), 40%. For the same molecule, in the test with volunteer corn (8 DAT, S-3100 20 g/HA alone), the “% lodging” value stood at 75%. For the same molecule, the “leaf symptoms (necrosis, yellowing, bronzing) as sign of translocation” value in test [2] was “leaf yellowing and vein necrosis especially on the main vascular tissue”.
For the molecule `OC[C@@H](O)[C@@H](O)[C@H](O)[C@H](O)CO` [mannitol], in the test on volunteer corn, the “lodging on addition of the sugar alcohol to S-3100” value is “did not increase lodging” and the “control of volunteer corn relative to S-3100 alone” value was “increase control of volunteer corn over S-3100 alone”. Also, the “control of barnyard grass relative to S-3100 alone” value in the test on barnyard grass [1] is on record as “increase control of barnyard grass over S-3100 alone”. In addition, in the test with crabgrass, the “control of crabgrass relative to S-3100 alone” value was “increase control of crabgrass over S-3100 alone”. The “leaf symptoms (necrosis, yellowing, bronzing) as sign of translocation” value in test [2] is listed as “necrotic areas on the leaf tissue”.
Consider `OC[C@@H](O)[C@@H](O)[C@H](O)[C@@H](O)CO` [sorbitol], for which, in the test with volunteer corn, the “lodging on addition of the sugar alcohol to S-3100” value is reported as 100% and the “control of volunteer corn relative to S-3100 alone” value is “increase control of volunteer corn over S-3100 alone”. Also, the “control of barnyard grass relative to S-3100 alone” value in the test with barnyard grass [1] was “increase control of barnyard grass over S-3100 alone”. Also, the “control of crabgrass relative to S-3100 alone” value in the test on crabgrass was “increase control of crabgrass over S-3100 alone”.
